From ChEMBL document CHEMBL4837249, “Discovery of Potent Antiallergic Agents Based on an o-Aminopyridinyl Alkynyl Scaffold” (J Med Chem, 2021)
Activity calls are given as the source filed them. The calls are words filed in the database; no cut-off is given here.

What was measured:
[1] = target: Tyrosine-protein kinase SYK (Homo sapiens) (UniProt P43405); assay: Inhibition of human full length recombinant Syk at 5 nM by radiometric scintillation counting analysis relative to control
[2] = Toxicity in anti-DNP IgE sensitized BALB/c mouse assessed as hemorrhage at 40 mg/kg, po; assay type: organism-based; settings: in vivo
[3] = target: 1-phosphatidylinositol 4,5-bisphosphate phosphodiesterase gamma-1 (Rattus norvegicus) (UniProt P10686); assay: Inhibition of PLCgamma1 phosphorylation in rat RBL-2H3 cells assessed as inhibition of Fc epsilonRI-mediated signal transduction by Western blot analysis; assay type: cell-based; settings: dose 8-200 nM
[4] = Half life in BALB/c mouse at 20 mg/kg, po measured up to 24 hrs by LC-MS/MS analysis; assay type: ADME, organism-based; settings: in vivo
[5] = Oral bioavailability in BALB/c mouse at 20 mg/kg measured up to 24 hrs by LC-MS/MS analysis; assay type: ADME, organism-based; settings: in vivo
[6] = Toxicity in anti-DNP IgE sensitized BALB/c mouse assessed as diarrhea at 40 mg/kg, po; assay type: organism-based; settings: in vivo
[7] = MRT in BALB/c mouse at 2 mg/kg, iv measured up to 24 hrs by LC-MS/MS analysis; assay type: ADME, organism-based; settings: in vivo
[8] = Cmax in BALB/c mouse at 20 mg/kg, po measured up to 24 hrs by LC-MS/MS analysis; assay type: ADME, organism-based; design: route oral, dose 20 mg/kg, time <=24; settings: in vivo
[9] = AUC (0 to t) in BALB/c mouse at 2 mg/kg, iv measured up to 24 hrs by LC-MS/MS analysis; assay type: ADME, organism-based; design: route intravenous, dose 2 mg/kg, time <=24; settings: in vivo
[10] = Toxicity in anti-DNP IgE sensitized BALB/c mouse assessed as hepatopathy at 40 mg/kg, po; assay type: organism-based; settings: in vivo
[11] = MRT in BALB/c mouse at 20 mg/kg, po measured up to 24 hrs by LC-MS/MS analysis; assay type: ADME, organism-based; settings: in vivo
[12] = Volume of distribution at steady state in BALB/c mouse at 2 mg/kg, iv measured up to 24 hrs by LC-MS/MS analysis; assay type: ADME, organism-based; settings: in vivo, read-out: Vdss
[13] = Toxicity in anti-DNP IgE sensitized BALB/c mouse assessed as body weight loss at 40 mg/kg, po; assay type: organism-based; settings: in vivo
[14] = test system: Mus musculus; assay: Antiallergic activity against anti-DNP IgE sensitized house dust mite-induced BALB/c mouse pulmonary allergic inflammation model assessed as by reduction in serum total IgE level at 40 mg/kg, po measured every 5 mins for 60 mins; assay type: functional, organism-based
[15] = test system: Mus musculus; assay: Antiallergic activity against anti-DNP IgE sensitized passive systemic anaphylaxis-induced BALB/c mouse pulmonary allergic inflammation model assessed as by decrease in body temperature drop at 40 mg/kg, po measured every 5 mins for 60 mins; assay type: functional, organism-based
[16] = target: Tyrosine-protein kinase SYK (Rattus norvegicus) (UniProt Q64725); assay: Inhibition of Syk phosphorylation in rat RBL-2H3 cells assessed as inhibition of Fc epsilonRI-mediated signal transduction by Western blot analysis; assay type: cell-based; settings: dose 8-200 nM
[17] = test system: RBL-2H3; assay: Inhibition of p38 MAPK phosphorylation in rat RBL-2H3 cells assessed as inhibition of Fc epsilonRI-mediated signal transduction by Western blot analysis; assay type: cell-based; settings: dose 8-200 nM
[18] = target: Proto-oncogene tyrosine-protein kinase Src (Rattus norvegicus) (UniProt Q9WUD9); assay: Inhibition of Src phosphorylation in rat RBL-2H3 cells assessed as inhibition of Fc epsilonRI-mediated signal transduction by Western blot analysis; assay type: cell-based; settings: dose 8-200 nM
[19] = test system: RBL-2H3; assay: Antiallergic activity against anti-DNP-IgE sensitized rat RBL-2H3 cells assessed as […] of degranulation by measuring beta-hexosaminidase release using P-nitrophenyl-N-acetyl-D-glucosamide as substrate at 0.04 uM measured after 1 hr by microplate reader relative to control; assay type: functional
[20] = Toxicity in anti-DNP IgE sensitized BALB/c mouse assessed as piloerection at 40 mg/kg, po; assay type: organism-based; settings: in vivo
[21] = Toxicity in anti-DNP IgE sensitized BALB/c mouse assessed as ascites at 40 mg/kg, po; assay type: organism-based; settings: in vivo

Chain of Tyrosine-protein kinase SYK (Rattus norvegicus) (Q64725 whole entry, looked up): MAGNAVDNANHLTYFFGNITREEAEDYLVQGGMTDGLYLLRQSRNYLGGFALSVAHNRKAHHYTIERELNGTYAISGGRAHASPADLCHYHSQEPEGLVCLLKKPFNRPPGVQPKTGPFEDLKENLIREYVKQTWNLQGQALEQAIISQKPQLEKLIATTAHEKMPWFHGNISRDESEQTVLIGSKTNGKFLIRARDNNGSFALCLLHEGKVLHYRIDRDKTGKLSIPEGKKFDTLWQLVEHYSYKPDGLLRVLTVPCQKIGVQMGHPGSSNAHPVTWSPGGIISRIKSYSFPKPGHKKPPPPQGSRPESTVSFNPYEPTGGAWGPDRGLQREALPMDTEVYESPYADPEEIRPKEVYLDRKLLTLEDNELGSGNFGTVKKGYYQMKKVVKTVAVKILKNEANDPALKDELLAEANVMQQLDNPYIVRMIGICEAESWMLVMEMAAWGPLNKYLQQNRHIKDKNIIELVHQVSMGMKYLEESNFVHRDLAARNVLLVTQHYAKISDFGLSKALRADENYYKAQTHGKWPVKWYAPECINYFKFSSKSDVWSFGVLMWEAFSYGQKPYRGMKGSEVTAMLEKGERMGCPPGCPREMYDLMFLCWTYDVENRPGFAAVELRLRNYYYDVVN
Chain of Proto-oncogene tyrosine-protein kinase Src (Rattus norvegicus) (Q9WUD9 2-536 limits assumed): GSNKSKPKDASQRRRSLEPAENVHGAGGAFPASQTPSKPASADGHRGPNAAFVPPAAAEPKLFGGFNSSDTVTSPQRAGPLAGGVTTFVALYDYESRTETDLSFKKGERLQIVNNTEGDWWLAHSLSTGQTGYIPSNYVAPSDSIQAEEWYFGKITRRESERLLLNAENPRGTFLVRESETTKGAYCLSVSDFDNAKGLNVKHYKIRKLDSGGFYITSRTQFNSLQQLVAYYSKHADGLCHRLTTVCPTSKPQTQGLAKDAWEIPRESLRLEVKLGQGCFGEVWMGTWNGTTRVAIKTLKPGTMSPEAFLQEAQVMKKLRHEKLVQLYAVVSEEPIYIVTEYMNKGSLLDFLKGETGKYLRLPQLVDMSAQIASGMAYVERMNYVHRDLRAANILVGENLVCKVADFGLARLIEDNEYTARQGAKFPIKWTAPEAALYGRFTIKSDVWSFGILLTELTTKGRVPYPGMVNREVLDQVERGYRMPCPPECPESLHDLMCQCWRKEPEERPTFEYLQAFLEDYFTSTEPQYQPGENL
Chain of 1-phosphatidylinositol 4,5-bisphosphate phosphodiesterase gamma-1 (Rattus norvegicus) (P10686 whole entry): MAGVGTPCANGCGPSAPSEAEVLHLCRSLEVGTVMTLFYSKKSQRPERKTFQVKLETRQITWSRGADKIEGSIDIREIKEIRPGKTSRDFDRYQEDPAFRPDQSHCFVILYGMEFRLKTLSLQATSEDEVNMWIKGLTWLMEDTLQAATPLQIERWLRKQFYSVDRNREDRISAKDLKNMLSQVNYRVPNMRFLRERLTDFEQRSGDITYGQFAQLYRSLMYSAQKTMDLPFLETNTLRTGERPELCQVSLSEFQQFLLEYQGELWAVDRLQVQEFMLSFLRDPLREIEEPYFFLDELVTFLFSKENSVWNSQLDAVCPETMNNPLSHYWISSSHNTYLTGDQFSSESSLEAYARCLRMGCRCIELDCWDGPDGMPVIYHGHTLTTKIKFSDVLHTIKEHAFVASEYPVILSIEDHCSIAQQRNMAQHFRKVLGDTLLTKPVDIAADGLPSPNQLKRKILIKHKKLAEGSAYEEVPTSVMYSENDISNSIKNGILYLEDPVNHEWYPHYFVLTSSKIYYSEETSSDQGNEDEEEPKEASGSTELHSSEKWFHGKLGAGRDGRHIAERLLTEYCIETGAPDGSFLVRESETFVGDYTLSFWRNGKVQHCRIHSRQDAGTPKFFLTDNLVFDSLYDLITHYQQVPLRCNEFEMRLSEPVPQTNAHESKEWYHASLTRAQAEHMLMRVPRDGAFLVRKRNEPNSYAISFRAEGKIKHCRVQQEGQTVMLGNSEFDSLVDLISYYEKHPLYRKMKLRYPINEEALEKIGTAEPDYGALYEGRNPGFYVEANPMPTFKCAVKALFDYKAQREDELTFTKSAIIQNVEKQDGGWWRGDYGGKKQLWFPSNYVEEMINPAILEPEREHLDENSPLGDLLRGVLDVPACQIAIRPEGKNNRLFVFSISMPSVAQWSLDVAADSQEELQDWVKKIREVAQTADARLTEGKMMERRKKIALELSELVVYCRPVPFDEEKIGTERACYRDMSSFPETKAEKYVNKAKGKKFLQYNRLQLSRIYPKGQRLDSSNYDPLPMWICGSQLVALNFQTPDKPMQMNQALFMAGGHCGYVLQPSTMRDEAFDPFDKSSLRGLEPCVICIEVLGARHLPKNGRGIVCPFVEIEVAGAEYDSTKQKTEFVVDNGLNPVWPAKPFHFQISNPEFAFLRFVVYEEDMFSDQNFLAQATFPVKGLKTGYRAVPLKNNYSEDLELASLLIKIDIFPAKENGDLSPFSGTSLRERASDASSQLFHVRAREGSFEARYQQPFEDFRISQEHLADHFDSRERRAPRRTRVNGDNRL

`Cc1ccc(C(=O)Nc2ccc(Cl)cc2Cl)cc1C#Cc1cc(-c2cnn(C)c2)cnc1N` gave an inhibition [1] of -2%.
For `Cc1ccc(C(=O)Nc2cc(C(F)(F)F)cc(C(F)(F)F)c2)cc1C#Cc1cc(-c2cnn(C)c2)cnc1N`, the Activity [2] was “Non-Toxic”, the inhibition [3] was “Dose-Dependent Effect” and the half-life [4] was 6.9 h. The bioavailability [5] was 99.9%, the Activity [6] was “Non-Toxic” and the MRT [7] was 4.4 h. For the same molecule, the Cmax [8] was 1940 ng/mL, the AUC(0-t) at 24 h [9] was 2130 ng·h/mL and the Activity [10] was “Non-Toxic”. For the same molecule, the MRT [11] was 11.2 h, the Vd [12] was 4 L/kg and the Activity [13] was “Non-Toxic”. The Activity [14] was “Active”, the Activity [15] was “Active” and the inhibition [16] was “Dose-Dependent Effect”. The inhibition [17] was “Dose-Dependent Effect”, the inhibition [18] was “Dose-Dependent Effect” and the inhibition at 0.04 µM [19] was 112%. For the same molecule, the Activity [20] was “Non-Toxic” and the Activity [21] was “Non-Toxic”.
